Test results reported in US20080031866A1, “METHOD FOR MODULATING THE PHARMACOKINETICS AND METABOLISM OF A THERAPEUTIC AGENT” (priority 2006, published 2008).

What was measured:
[1] = IV pharmacokinetics of Compound 1 and its glucuronides in rats; assay type: in vivo, rat; settings: Sprague Dawley, rat, plasma, Compound 1 2 mg/kg IV
Protocol: (§1) Two separate IV studies were carried out using two separate lots of animals. IV-A was run on the same lot of animals as the oral gavage study and IV-B was run on the same lot of animals as the intraduodenal and intra-colonic studies.
For the IV dosing solutions (IV), Compound 1 was prepared by addition to DI water containing 20% hydroxypropyl β-cyclodextran by weight.
(§2) For the IV and oral gavage dosing (sampling at jugular and portal vein), young adult male Sprague Dawley rats weighing 250-400 g were purchased from Hilltop Lab Animals Inc. All rat experiments were conducted under approved animal protocols. The rats for the oral gavage dosing were catheterized at Hilltop Lab Animals Inc, had two chronic catheters for sampling: jugular and portal, were housed in cages of Culex™ Automated Blood Sampler (ABS) and blood samples were collected simultaneously via both cannula and were controlled by the Culex™ ABS control software.
(§3) A quantitative method for determining the amount of (6,7-dimethoxy-2,4-dihydro-indeno[1,2-c]pyrazol-3-yl)-(3-fluoro-phenyl)-amine Compound 1 and its major metabolites, glucuronide A (Cpd 1-GluA) and glucuronide B (Cpd 1-GluB) (see Scheme A) in rat plasma was developed using phenacetin as an internal standard. [drawing 1]
(§4) The two glucuronide conjugates were prepared and purified to permit accurate quantification of the levels of intact parent Compound 1 versus Cpd 1-GluA and Cpd 1-GluB. Each standard curve for Compound 1, Cpd 1-GluA, and Cpd 1-GluB generated from rat plasma included ten concentration levels. […] The quantitative procedure for each sample included: sample preparation, HPLC separation and mass spectrometry detection.
(§5) The rat plasma was prepared using protein precipitation techniques. Reference standards and quality control samples in rat plasma for Compound 1 were transferred to a 96 deep-well plate. The precipitation solution contained 100 ng/ml of internal standard in acetonitrile. 300 μl of precipitation solution were added to 100 μl of each standard, quality control and plasma sample. Samples were vortexed for 10 mins, then centrifuged at 4500 RPM for 10 mins. 10 μl of each sample were injected for LC/MS/MS analysis.
(§6) The HPLC column chosen for the bioanalysis was purchased from Thermo Electron (Hypersil BetaBasic C18, 5 cm×2.1 mm). The eluting solvents were composed of Solvent A: 0.1% formic acid in H2O and Solvent B: 0.1% formic acid in acetonitrile. A step gradient was used and flow rate was 300 μl/min. The total run time was 3.2 mins. Solvent B was increased from 35% at 0 min to 75% at 2.1 mins and decreased back to 35% at 2.2 mins. The retention times for Compound 1, phenacetin, Cpd 1-GluA and Cpd 1-GluB were 1.1 min, 0.9 min, 1.3 min, and 1.6 min, respectively.
(§7) API3000 with a Turbo Ionspray interface from Applied Biosystems was used for the detection of Compound 1, the internal standard and major metabolites. Electrospray ionization was performed in the positive ion mode heated nebulizer with a temperature of 300° C. LC/MS/MS chromatograms were acquired in MRM (multiple reaction mode). The MRM transitions for Compound 1, the internal standard, Cpd 1-GluA and Cpd 1-GluB were from 326.3 to 190.6, 181.1 to 110.3, 502.2 to 368.3 and 502.2 to 326.4, respectively.
Pharmacokinetic analysis of the plasma concentration data was performed to determine the maximum plasma concentration (Cmax) for the oral dose, and the concentration at zero time (C0; Compound 1 only) by the extrapolation of drug concentrations back to the time of i.v. dosing, the time to maximum plasma concentration (Tmax) following the oral dose, area under the plasma concentration vs. time curve (AUC), terminal half-life (t1/2), plasma clearance (CL/F; Compound 1 only), and volume of distribution at steady state (Vdss; Compound 1 only) for the i.v. dose, using the WinNonlin (Version 3.1, Pharsight, Palo Alto, Calif.) validated computer program.

[2] = Oral gavage pharmacokinetics, jugular and portal vein sampling, first pass metabolism; assay type: in vivo, rat; settings: for AUC: po, 75 mg/kg; for AUC / concentration at 0 h / concentration at 0.08 h / concentration at 0.25 h / concentration at 0.33 h / concentration at 0.5 h / concentration at 0.67 h / concentration at 1 h / concentration at 1.25 h / concentration at 1.5 h / concentration at 2 h / concentration at 3 h / concentration at 4 h / concentration at 6 h / concentration at 12 h / concentration at 24 h / Cmax: rats N=4; for Cmax: read-out: Cmax average ± standard deviation
Protocol: as §1
For the oral gavage dosing, Compound 1 was prepared in neat PEG-400. For the intraduodenal and intracolonic dosing solutions, Compound 1 was added to neat Tween 80, the mixture was sonicated for thirty minutes at 45° C. until Compound 1 was completely dissolved and then deionized (DI) water was added to form a solution consisting of 20% Tween 80 and 80% DI water by weight.
as §2, §3, §4, §5, §6
as §7, with “respectively. […]” for “respectively.”

[3] = male, Sprague Dawley, rat, plasma (jugular vein sample), Compound 1 75 mg/kg oral gavage, jugular sample
[4] = male, Sprague Dawley, rat, plasma (portal vein sample), Compound 1 75 mg/kg oral gavage, portal sample
[5] = male, Sprague Dawley, rat, portal vein plasma, Compound 1 75 mg/kg oral gavage, portal sample

**Q.** What does the source list for COc1cc2c(cc1OC)-c1nn(C3OC(C(=O)O)C(O)C(O)C3O)c(Nc3cccc(F)c3)c1C2 (stereo in doubt) [Cpd 1-GluB]?
**A.** AUC ([1]; male rats N=4, read-out: AUC average ± standard deviation): 103 ± 47 ng·h/mL; Cmax ([1]; male rats N=4, read-out: Cmax average ± standard deviation): 28 ± 3 ng/mL; concentration at 0 h ([1]; male rats N=4, retro orbital sinus, 0 hrs): 0 ng/mL; concentration at 0.08 h ([1]; male rats N=4, retro orbital sinus, 0.08 hrs): 21.2 ng/mL; concentration at 0.33 h ([1]; male rats N=4, retro orbital sinus, 0.33 hrs): 28.4 ng/mL; concentration at 1 h ([1]; male rats N=4, retro orbital sinus, 1 hr): 17.8 ng/mL; concentration at 2 h ([1]; male rats N=4, retro orbital sinus, 2 hrs): 5.5 ng/mL; concentration at 4 h ([1]; male rats N=4, retro orbital sinus, 4 hrs): 0 ng/mL; concentration at 8 h ([1]; male rats N=4, retro orbital sinus, 8 hrs): 0 ng/mL; concentration at 24 h ([1]; male rats N=4, retro orbital sinus, 24 hrs): 0 ng/mL; Tmax ([1]; male rats): 18 min; Ratio of metabolite to Compound 1 ([2]; jugular vein, oral gavage): 1; AUC ([2]; male, Sprague Dawley, rat, plasma (jugular vein sample), Compound 1 75 mg/kg oral gavage, jugular sample, read-out: AUC average ± standard deviation 0 to 24 hours): 1710 ng·h/mL; AUC ([2]; male, Sprague Dawley, rat, plasma (jugular vein sample), Compound 1 75 mg/kg oral gavage, jugular sample, read-out: AUC average ± standard deviation 0 to infinite hours): 2180 ng·h/mL; concentration at 0 h [2, 3]: 0 ng/mL; concentration at 0.08 h [2, 3]: 37.8 ng/mL; concentration at 0.25 h [2, 3]: 169 ng/mL; concentration at 0.33 h [2, 3]: 233 ng/mL; concentration at 0.5 h [2, 3]: 223 ng/mL; concentration at 0.67 h [2, 3]: 244 ng/mL; concentration at 1 h [2, 3]: 230 ng/mL; concentration at 1.25 h [2, 3]: 178 ng/mL; concentration at 1.5 h [2, 3]: 169 ng/mL; concentration at 2 h [2, 3]: 141 ng/mL; concentration at 3 h [2, 3]: 90 ng/mL; concentration at 4 h [2, 3]: 51.4 ng/mL; concentration at 6 h [2, 3]: 71.3 ng/mL; concentration at 12 h [2, 3]: 86.5 ng/mL; concentration at 24 h [2, 3]: 29 ng/mL; Cmax [2, 3]: 268 ± 52 ng/mL; concentration at 0.67 h [2, 4]: 290 ng/mL; concentration at 1 h [2, 4]: 164 ng/mL; concentration at 1.25 h [2, 4]: 183 ng/mL; concentration at 1.5 h [2, 4]: 151 ng/mL; concentration at 2 h [2, 4]: 142 ng/mL; concentration at 3 h [2, 4]: 105 ng/mL; concentration at 4 h [2, 4]: 79.5 ng/mL; concentration at 6 h [2, 4]: 120 ng/mL; concentration at 12 h [2, 4]: 87.2 ng/mL; Tmax ([2]; male, Sprague Dawley, rat, plasma, rats, Compound 1 75 mg/kg oral gavage): 30 min; AUC ([2]; male, Sprague Dawley, rat, portal vein plasma, Compound 1 75 mg/kg oral gavage, portal sample, read-out: AUC average ± standard deviation 0 to 24 hours): 1960 ng·h/mL; AUC ([2]; male, Sprague Dawley, rat, portal vein plasma, Compound 1 75 mg/kg oral gavage, portal sample, read-out: AUC average ± standard deviation 0 to infinite hours): 2490 ng·h/mL; concentration at 0 h [2, 5]: 0 ng/mL; concentration at 0.08 h [2, 5]: 82.8 ng/mL; concentration at 0.25 h [2, 5]: 215 ng/mL; concentration at 0.33 h [2, 5]: 263 ng/mL; concentration at 0.5 h [2, 5]: 192 ng/mL; concentration at 24 h [2, 5]: 39.9 ng/mL; Cmax [2, 5]: 324 ± 129 ng/mL; Mean ratio of metabolite to Compound 1 ([2]; portal system, oral gavage): 0.2
